Legend:
spinal fracture = conditions: post-menopausal women; cited from earlier work
bone = test: treatment of mammals with polysulfated polysaccharides, effect on bone; format: in vivo

In the case of `NCCCC(O)(P(=O)(O)O)P(=O)(O)O` [Fosamax, alendronate], the “reduction of risk of spinal fracture” value (spinal fracture) is given as about 50%.

In the case of calcium pentosan polysulfate, the “occurrence or spread of osteoporosis” value (bone; low dosages producing blood levels of 0.01 to 100 micrograms per ml, low continuous or high pulsed therapy dose) is reported as “reduces the occurrence or spread of osteoporosis”.

For pentosan polysulfate, the “effect on bone (bone fragility)” value (bone; high repeated dosages, mammals) was “causes bone fragility”.
